Legend:
[1] = oxidative aging tests; Poeggeler et al. 2005; cited from earlier work
[2] = literature; cited from earlier work
[3] = system: Sprague-Dawley rat embryo cortex cell cultures; test: Doxorubicin (mitochondria-selective oxidative stress inducer)-induced cell death, viability of cortex cell cultures; format: cell-based; details: doxorubicin-induced mitochondrial oxidative stress; preliminary results
Experimental: (§1) The biological tests were carried out according to the procedures described in Journal of Neurochemistry, 2005, 95, 962-973. In order to evaluate the potentialities of these novel derivatives, we measured the ability of compound 10 to reduce and prevent apoptotic cell death phenomena. Hydrogen peroxide is very widely used as an apoptosis inducer in many cell models. Thus, the viability of Sprague-Dawley rat embryo cortex cell cultures is greatly impaired after treatment with hydrogen peroxide at concentrations of 50 to 200 μM. […] These same cultures were also subjected to a mitochondria-selective oxidative stress inducer, doxorubicin (Kotamraju S.; Konorev E. A.; Joseph J.; Kalyanaraman B. J. Biol. Chem. 2000, 275, 33 585-33 592). The observations are the same as for the induction with hydrogen peroxide. […] These preliminary results underline the great ability of compound 10 to prevent apoptosis phenomena induced at varying cell levels. […] A dysfunction of the mitochondrion, the central organelle in the control of apoptosis is involved in a very wide variety of pathological conditions. The anti-apoptotic properties of derivative 10 combined with its incorporation into the mitochondrion make it possible to envision its use in the fields mentioned above.

[4] = system: Sprague-Dawley rat embryo cortex cell cultures; test: Hydrogen peroxide-induced apoptotic cell death, viability of cortex cell cultures; format: cell-based; details: compound at 10 μM; hydrogen peroxide 50 to 200 μM; preliminary results
Experimental: as §1

[5] = system: gerbils; details: after injection in gerbils; Oliver et al. 1990; cited from earlier work

Row | Compound | biological activity compared with PBN [1] | neuroprotective activity compared with PBN [2] | protection against cell death / cell viability under doxorubicin [3] | restoration of viability of cultures after hydrogen peroxide treatment [4] | damage caused by cerebral ischemia [5]
1 | CCCCCCCC(=O)NCC(C)(C)[N+]([O-])=Cc1ccc(CNC(=O)[C@H](OC(C)=O)[C@@H](OC(C)=O)[C@H](O[C@@H]2O[C@H](COC(C)=O)[C@H](OC(C)=O)[C@H](OC(C)=O)[C@H]2OC(C)=O)[C@@H](COC(C)=O)OC(C)=O)cc1 [LPBNAH, N-[4-(octa-O-acetyllactobionamidomethylene)benzylidene]-N-[1,1-dimethyl-2-(N-octanoyl)amido]ethylamine N-oxide] | biological activity greater than that of PBN |  |  |  | 
2 | CC(C)(C)[N+]([O-])=Cc1ccc(S(=O)(=O)[O-])cc1S(=O)(=O)[O-].[Na+].[Na+] [NXY-059] |  | neuroprotective activity greater than PBN |  |  | 
3 | CCCCCCCC(=O)NCc1ccc(/C=[N+](\[O-])C(C)(C)CNC(=O)C(O)[C@H](O)[C@H](O[C@@H]2OC(CO)[C@H](O)C(O)C2O)C(O)CO)cc1 (stereo partly shown) [Compound 10] |  |  | allows the cell viability to be completely maintained | completely restore the viability | 
4 | CC(C)(C)[N+]([O-])=Cc1ccccc1 [PBN, α-C-phenyl-N-tert-butylnitrone] |  |  | only a partial protection against cell death | very incompletely restore the viability | decrease in the damage caused by cerebral ischemia

Reference: US8173843B2, “Amphiphilic derivatives of α-C-phenyl-N-tert-butylnitrone” (TS Pharma, priority 2006, dated 2012)
